According to ChEMBL document CHEMBL1150345 (J Med Chem, 2008):

Key:
[1] = molecular target: T1, Histamine H4 receptor (Homo sapiens, UniProt Q9H3N8); experiment: Displacement of [3H]histamine from human histamine H4 receptor expressed in […] cells at 5 uM; format: cell-based; settings: SK-N-MC
[2] = molecular target: T1, Histamine H4 receptor; experiment: biochemical; format: cell-based, SK-N-MC

| Activity [1] | Ki [2] | SMILES |
| --- | --- | --- |
| 29.4% |  | CN(C)CCCNC(=O)/C(=C\c1cn(-c2ccccc2)nc1-c1ccc(Br)cc1)NC(=O)c1ccccc1 |
| 92.6% | 219 nM | CCOC(=O)c1ccc(NC2=CC(=O)/C(=N\NC(=N)N)c3ccccc32)cc1 |
| 23% |  | CN1CCN(C(=O)c2cccc(Nc3nc(-c4ccccc4)c4cc(Br)ccc4n3)c2)CC1 |
| 46.9% |  | NCCNC(=O)c1cc2ccccc2[nH]1 |
| 26% |  | C[n+]1cccc(NC(=O)c2ccc(NC(=O)c3ccc(C(=O)Nc4ccc(NC(=N)N)cc4)cc3)cc2)c1 |
| 50.3% |  | CN1CCN(c2ccccc2NC(=S)NC(=O)c2cc3ccccc3o2)CC1 |
| 34.7% |  | N=C(N)NN/C(=C(\O)c1ccccc1)c1ccccc1 |
| 37.1% |  | N=C(N)NC(=N)Nc1ccc(Cl)cc1C(=O)c1ccccc1 |

Second part, the compound before the results:

| SMILES | Activity [1] | Ki [2] |
| --- | --- | --- |
| N=C(N)NCc1cccc(CNC(=N)N)n1 | 67.8% | 1240 nM |
| CC(/C=C/NNC(=N)N)=N/NC(=N)N | 33.9% |  |
| C/N=C(\N)N/N=C(/C)c1ccc2sc3ccc(/C(C)=N\N/C(N)=N/C)cc3c2c1 | 72% | 1480 nM |
| Cc1cc(C)nc(N=C(N)NCCc2cnc[nH]2)n1 |  | 85 nM |
| CN(C)CCCSC(=N)N |  | 90 nM |
| N=C(N)SCCc1cnc[nH]1 [IMETIT] |  | 3.6 nM |
| C[C@@H](N)Cc1c[nH]cn1 |  | 184 nM |
| Cc1cc(C)nc(N/C(N)=N/CCc2c[nH]cn2)n1 | 95.8% |  |
| N=C(N)NN=C1C=CC(=NNC(=N)N)C=C1 | 44% |  |
| CC(/C=C(\C)NNC(=N)N)=N/NC(=N)N | 64.3% | 897 nM |
| NC(=NCc1ccc(Cl)cc1)SCCCc1cnc[nH]1 [CLOBENPROPIT] |  | 5 nM |
| CN(CCN(C)c1ccc(N)cc1)c1ccc(N)cc1 | 34.3% |  |
| NC(=NCCc1ccc(I)cc1)SCCCc1cnc[nH]1 [IODOPHENPROPIT] |  | 7.8 nM |
| COc1cccc(C2NCCc3[nH]cnc32)c1 (stereo unspecified) | 20.9% |  |
